Read-outs that look alike come from different tables or passages of the source.
Assays:
HSD17β4 = target: T1, HSD17β4 (Homo sapiens, UniProt P51659); assay: Selectivity screen, type-4 hydroxysteroid dehydrogenase (PubChem Assay ID 893)
T1 sequence (P51659 1-736): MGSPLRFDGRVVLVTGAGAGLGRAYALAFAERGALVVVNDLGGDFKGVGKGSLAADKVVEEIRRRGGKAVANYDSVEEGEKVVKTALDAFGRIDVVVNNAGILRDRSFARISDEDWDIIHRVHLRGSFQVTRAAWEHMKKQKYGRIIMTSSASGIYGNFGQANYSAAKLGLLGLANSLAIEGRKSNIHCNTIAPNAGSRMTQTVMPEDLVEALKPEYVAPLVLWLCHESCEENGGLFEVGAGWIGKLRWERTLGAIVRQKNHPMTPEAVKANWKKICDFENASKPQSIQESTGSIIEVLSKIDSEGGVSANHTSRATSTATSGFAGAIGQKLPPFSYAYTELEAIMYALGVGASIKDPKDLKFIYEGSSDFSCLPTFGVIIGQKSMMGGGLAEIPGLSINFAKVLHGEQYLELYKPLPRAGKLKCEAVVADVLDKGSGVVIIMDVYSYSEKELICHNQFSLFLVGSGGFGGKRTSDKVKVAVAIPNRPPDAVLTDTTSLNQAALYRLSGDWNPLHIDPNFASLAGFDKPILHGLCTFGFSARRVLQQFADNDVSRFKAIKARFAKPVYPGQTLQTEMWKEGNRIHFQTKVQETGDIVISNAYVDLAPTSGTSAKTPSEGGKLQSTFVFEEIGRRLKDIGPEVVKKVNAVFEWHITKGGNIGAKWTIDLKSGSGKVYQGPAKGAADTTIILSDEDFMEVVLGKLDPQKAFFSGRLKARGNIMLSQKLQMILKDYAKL
Protocol: (§1) The list also includes two SDR enzymes, hydroxyacyl dehydrogenase (HADH2, also known as type-10 hydroxysteroid dehydrogenase, HSD17β10; PubChem Assay ID 886) and type-4 hydroxysteroid dehydrogenase (HSD17β4; PubChem Assay ID 893), and a medium-chain dehydrogenase/reductase (MDR), aldehyde dehydrogenase 1 (ALDH1A1; PubChem Assay ID 1030), each of which was tested using a similar experimental protocol to that used for 15-PGDH.

ALDH1A1 = target: T2, ALDH1A1 (Homo sapiens, UniProt P00352); assay: Selectivity screen, aldehyde dehydrogenase 1 (PubChem Assay ID 1030); format: biochemical
T2 sequence (P00352 1-501): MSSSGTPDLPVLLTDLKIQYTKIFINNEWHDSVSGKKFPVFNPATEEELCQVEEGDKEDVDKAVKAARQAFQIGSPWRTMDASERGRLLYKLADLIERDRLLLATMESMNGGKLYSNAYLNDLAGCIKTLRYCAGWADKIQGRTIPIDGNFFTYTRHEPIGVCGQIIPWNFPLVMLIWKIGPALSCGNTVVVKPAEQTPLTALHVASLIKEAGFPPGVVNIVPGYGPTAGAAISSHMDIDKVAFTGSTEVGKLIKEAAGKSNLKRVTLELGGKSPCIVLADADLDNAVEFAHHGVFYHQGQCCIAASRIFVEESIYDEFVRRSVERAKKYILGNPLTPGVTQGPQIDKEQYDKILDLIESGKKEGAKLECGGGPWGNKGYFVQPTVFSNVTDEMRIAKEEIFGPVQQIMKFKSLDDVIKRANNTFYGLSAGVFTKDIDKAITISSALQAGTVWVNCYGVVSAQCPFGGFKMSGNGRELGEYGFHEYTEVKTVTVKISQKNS
Protocol: as §1

human 15-PGDH = target: T3, human 15-PGDH (Homo sapiens, UniProt P15428); assay: qHTS and 24-point re-test: fluorescence assay of NAD+ reduction to NADH on PGE2 oxidation (PubChem AID 894); format: biochemical; conditions: read-out: qHTS IC50
T3 construct: comprising residues 3–256 of the human HPGD gene (GenBank identifier: 1203982); His6 (GHHHHHH, behind the TEV site) (C, cleaved yes); made in house; host or cells: E. coli BL21(DE3)-R3
T3 sequence (P15428 3-256): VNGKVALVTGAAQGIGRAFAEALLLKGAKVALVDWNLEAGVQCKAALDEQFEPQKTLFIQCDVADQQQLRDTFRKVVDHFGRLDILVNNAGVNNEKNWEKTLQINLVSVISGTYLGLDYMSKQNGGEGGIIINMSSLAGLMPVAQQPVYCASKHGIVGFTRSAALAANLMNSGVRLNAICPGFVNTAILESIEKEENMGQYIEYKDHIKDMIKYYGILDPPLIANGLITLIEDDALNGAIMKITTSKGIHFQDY
Outline: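 NADH fluorescence (ex 340/em 450 nm) followed kinetically over a 2-min initial rate. Data normalized to no-enzyme and no-compound controls; four-parameter Hill fit.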

[1] = top concentration 57.5 µM, PubChem Assay ID 1030, read-out: IC50/nM ALDH1A1

Cc1cccc(-n2cnc3cc(C(=O)N4CCCCC4)ccc32)c1 [Compound 13, [1-(3-methylphenyl)-1H-benzimidazol-5-yl)(piperidin-1-yl)methanone]
IC50 (HSD17β4): > 57.5 µM
Emax (ALDH1A1; ALDH1A1, footnote of Table 3, read-out: Maximal response, inhibition): 70%
IC50 (ALDH1A1; ALDH1A1, shallow curve, read-out: approximate IC50): ~36000 nM
IC50 (ALDH1A1; [1]): 36000 nM
IC50 (human 15-PGDH): 0.056 µM

Cc1cc(-c2nnc3n2CCCCC3)c(C)n1-c1ccccc1 [Compound 72]
IC50 (HSD17β4): > 57.5 µM
response against ALDH1A1 (ALDH1A1; in words): flat response
IC50 (ALDH1A1; [1]): > 57500 nM
IC50 (human 15-PGDH): 0.089 µM

Source: PMC2970562, “High-Affinity Inhibitors of Human NAD^+-Dependent 15-Hydroxyprostaglandin Dehydrogenase: Mechanisms of Inhibition and Structure-Activity Relationships” (PLoS ONE, 2010)
